Molecular target: human Nav1.8 (Homo sapiens (Human), UniProt Q9Y5Y9)
Assay: Nav1.8 Qube automated patch-clamp assay
Assay type: cell-based
Conditions: Nav1.8 Qube Assay; human Nav1.8 channels stably expressed in HEK 293 cells
In short: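 Whole-cell automated patch clamp was run at room temperature on HEK293 cells stably expressing the channel. A 1 Hz, 10 s train of 20 ms pulses to 10 mV from −90 mV (repolarizing to −67 mV) was applied. Peak currents at the 1st and 10th pulses gave resting and inactivated-state IC50 values by Hill fit.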

human Nav1.8, sequence (Q9Y5Y9 whole entry): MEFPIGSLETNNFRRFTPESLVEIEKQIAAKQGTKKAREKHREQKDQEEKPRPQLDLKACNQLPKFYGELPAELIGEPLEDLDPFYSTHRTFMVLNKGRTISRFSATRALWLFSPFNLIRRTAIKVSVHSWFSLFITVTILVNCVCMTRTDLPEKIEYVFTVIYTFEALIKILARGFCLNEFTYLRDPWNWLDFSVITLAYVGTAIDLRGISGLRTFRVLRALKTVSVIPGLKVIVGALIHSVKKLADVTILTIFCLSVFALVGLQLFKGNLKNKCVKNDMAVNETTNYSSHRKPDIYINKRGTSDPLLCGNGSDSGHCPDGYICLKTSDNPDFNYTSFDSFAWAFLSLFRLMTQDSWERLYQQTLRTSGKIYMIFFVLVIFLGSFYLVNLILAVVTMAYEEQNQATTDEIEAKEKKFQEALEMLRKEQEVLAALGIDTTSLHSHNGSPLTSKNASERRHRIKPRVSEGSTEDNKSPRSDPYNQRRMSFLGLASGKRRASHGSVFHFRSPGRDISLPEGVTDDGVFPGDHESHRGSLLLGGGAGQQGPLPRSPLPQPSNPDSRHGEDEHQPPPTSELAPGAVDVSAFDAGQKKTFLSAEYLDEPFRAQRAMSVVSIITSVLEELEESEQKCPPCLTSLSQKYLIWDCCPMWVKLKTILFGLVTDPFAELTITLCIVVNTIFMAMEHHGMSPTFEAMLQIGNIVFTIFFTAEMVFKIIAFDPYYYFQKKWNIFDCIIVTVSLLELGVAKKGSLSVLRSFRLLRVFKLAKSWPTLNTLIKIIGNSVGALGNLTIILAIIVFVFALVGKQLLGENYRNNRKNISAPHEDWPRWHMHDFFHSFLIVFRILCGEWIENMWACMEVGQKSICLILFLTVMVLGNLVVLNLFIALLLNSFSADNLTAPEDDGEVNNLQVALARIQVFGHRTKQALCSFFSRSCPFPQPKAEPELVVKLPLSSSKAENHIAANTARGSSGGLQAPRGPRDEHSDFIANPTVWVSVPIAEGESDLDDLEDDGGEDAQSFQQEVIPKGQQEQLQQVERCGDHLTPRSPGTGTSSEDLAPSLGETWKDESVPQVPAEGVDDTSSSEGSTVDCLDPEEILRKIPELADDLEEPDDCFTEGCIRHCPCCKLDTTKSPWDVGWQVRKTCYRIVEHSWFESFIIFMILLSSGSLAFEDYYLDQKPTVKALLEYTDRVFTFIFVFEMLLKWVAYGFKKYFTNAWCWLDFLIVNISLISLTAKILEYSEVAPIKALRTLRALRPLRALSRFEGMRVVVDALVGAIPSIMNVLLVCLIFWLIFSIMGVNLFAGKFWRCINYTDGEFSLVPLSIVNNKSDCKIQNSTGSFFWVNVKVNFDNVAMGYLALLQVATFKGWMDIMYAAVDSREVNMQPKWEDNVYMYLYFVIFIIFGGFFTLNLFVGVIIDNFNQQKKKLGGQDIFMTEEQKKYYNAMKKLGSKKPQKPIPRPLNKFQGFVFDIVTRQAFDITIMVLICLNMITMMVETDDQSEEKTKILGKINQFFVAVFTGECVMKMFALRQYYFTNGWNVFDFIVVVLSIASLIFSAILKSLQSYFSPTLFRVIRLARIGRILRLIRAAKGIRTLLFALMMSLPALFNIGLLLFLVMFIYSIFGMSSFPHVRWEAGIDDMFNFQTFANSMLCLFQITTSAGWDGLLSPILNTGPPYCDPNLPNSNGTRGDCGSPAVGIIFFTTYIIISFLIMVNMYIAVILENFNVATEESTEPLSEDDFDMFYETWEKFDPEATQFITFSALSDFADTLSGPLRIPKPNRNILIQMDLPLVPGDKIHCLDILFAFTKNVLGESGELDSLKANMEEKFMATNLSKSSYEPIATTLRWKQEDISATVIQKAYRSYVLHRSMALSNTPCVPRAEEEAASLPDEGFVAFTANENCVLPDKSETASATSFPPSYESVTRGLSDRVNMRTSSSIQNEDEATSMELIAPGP

| SMILES | IC50 [nM] |
| --- | --- |
| NS(=O)(=O)c1cccc(NC(=O)c2cc(F)cnc2N2CCCCC2)c1 [Example 6, 5-fluoro-2-(1-piperidyl)-N-(3-sulfamoyl-phenyl)pyridine-3-carboxamide] | 8320 |
| NS(=O)(=O)c1c(F)ccc(NC(=O)c2cc(C(F)(F)F)cnc2N2CCC(F)(F)CC2)c1F [Example 28, N-(2,4-difluoro-3-sulfamoylphenyl)-2-(4,4-difluoropiperidin-1-yl)-5-(trifluoromethyl)nicotinamide] | 211 |
| Cc1cc(Cl)c(C(=O)Nc2cccc(S(N)(=O)=O)c2)c(N2CCCCCC2)n1 [Example 158, 2-(azepan-1-yl)-4-chloro-6-methyl-N-(3-sulfamoylphenyl)-pyridine-3-carboxamide] | 910 |
| Cc1cc(Cl)nc(N2CCCC(F)(F)CC2)c1C(=O)Nc1cccc(C(N)=O)c1 [Example 17, N-(3-carbamoyl-phenyl)-6-chloro-2-(4,4-difluoroazepan-1-yl)-4-methyl-pyridine-3-carboxamide] | 29 |
| CC12CCN(c3ncc(C(F)(F)F)cc3C(=O)Nc3cccc(S(N)(=O)=O)c3)CC1C2(F)F (single isomer, unassigned) [Example 128, 2-[(1R,6R or 1S,6S)-7,7-difluoro-6-methyl-3-azabicyclo[4.1.0]heptan-3-yl]-N-(3-sulfamoyl-phenyl)-5-(trifluoro-methyl)-pyridine-3-carboxamide] | 14 |
| Cc1cc(C(=O)Nc2cccc(S(C)(=O)=O)c2)c(N2CCCCCC2)nc1C [Example 36, 2-(azepan-1-yl)-5,6-dimethyl-N-(3-methyl-sulfonylphenyl)pyridine-3-carboxamide] | 31 |
| NS(=O)(=O)c1cccc(NC(=O)c2cc(C(F)(F)F)cnc2N2CC3CC(F)(F)C3C2)c1 (single isomer, unassigned) [Example 135, 2-[(1S,5R or 1R,5S)-6,6-difluoro-3-azabicyclo[3.2.0]heptan-3-yl]-N-(3-sulfamoyl-phenyl)-5-(trifluoro-methyl)pyridine-3-carboxamide] | 37 |
| CC(C)(C)c1ccc(C(=O)Nc2cccc(S(C)(=O)=O)c2)c(N2CCCCC2)n1 [Example 41, 6-tert-butyl-N-(3-methylsulfonylphenyl)-2-(1-piperidyl)pyridine-3-carboxamide] | 4630 |
| CS(=O)(=O)c1cccc(NC(=O)c2cc(C(F)(F)F)cnc2N2CCc3ccccc3C2)c1 [Example 98, 2-(3,4-dihydro-1H-isoquinolin-2-yl)-N-(3-methylsulfonylphenyl)-5-(trifluoromethyl)-pyridine-3-carboxamide] | 93 |
| CS(=O)(=O)c1cccc(NC(=O)c2cc(C(F)(F)F)cnc2N2CC3CCC(F)(F)C3C2)c1 (centres unmarked) [Example 96, 2-(4,4-difluoro-1,3,3a,5,6,6a-hexahydrocyclopenta[c]pyrrol-2-yl)-N-(3-methylsulfonylphenyl)-5-(trifluoromethyl)-pyridine-3-carboxamide] | 40 |
| NS(=O)(=O)c1cccc(NC(=O)c2cc(C(F)(F)F)cnc2N2C3CCC2CC3)c1 [Example 139, 2-(7-azabicyclo[2.2.1]heptan-7-yl)-N-(3-sulfamoyl-phenyl)-5-(trifluoro-methyl)pyridine-3-carboxamide] | 3460 |
| CC(C)c1cnc(N2CCCC(F)(F)CC2)c(C(=O)Nc2cccc(S(N)(=O)=O)c2)c1 [Example 162, 2-(4,4-difluoroazepan-1-yl)-5-isopropyl-N-(3-sulfamoylphenyl)nicotinamide] | 7.1 |
| NS(=O)(=O)c1cccc(NC(=O)c2cc(C3CCCC3)cnc2N2CCCCC2)c1 [Example 154, 5-cyclopentyl-2-(piperidin-1-yl)-N-(3-sulfamoylphenyl)-nicotinamide] | 1790 |
| NC(=O)c1cccc(NC(=O)c2ccc(Cl)nc2N2CCCC(F)(F)CC2)c1 [Example 14, N-(3-carbamoyl-phenyl)-6-chloro-2-(4,4-difluoroazepan-1-yl)pyridine-3-carboxamide] | 18 |
| NS(=O)(=O)c1cccc(NC(=O)c2cc(C(F)(F)F)cnc2N2CCOCC2)c1 [Example 69, 2-morpholino-N-(3-sulfamoylphenyl)-5-(trifluoromethyl) pyridine-3-carboxamide] | 4060 |
| NS(=O)(=O)c1cccc(NC(=O)c2cc(C(F)(F)F)cnc2N2CC3(CCOCC3)C2)c1 [Example 81, 2-(7-oxa-2-azaspiro[3.5]nonan-2-yl)-N-(3-sulfamoyl-phenyl)-5-(trifluoro-methyl)nicotinamide] | 4240 |
| NS(=O)(=O)c1cccc(NC(=O)c2cc(C(F)(F)F)cnc2N2CCC3(CC2)CC3)c1 [Example 43, 2-(6-azaspiro[2.5]octan-6-yl)-N-(3-sulfamoylphenyl)-5-(trifluoromethyl)nicotinamide] | 57 |
| O=C(Nc1cccc(S(=O)(=O)C2CCCC2)c1)c1cc(C(F)(F)F)cnc1N1CCCCCC1 [Example 120, 2-(azepan-1-yl)-N-(3-cyclopentylsulfonylphenyl)-5-(trifluoro-methyl)-pyridine-3-carboxamide] | 3020 |

Further compounds by falling IC50, results first:

| IC50 [nM] | SMILES |
| --- | --- |
| 9970 | COC(=O)N1CCN(c2ncc(C(F)(F)F)cc2C(=O)Nc2cccc(S(N)(=O)=O)c2)CC1 [Example 74, methyl 4-[3-[(3-sulfamoylphenyl)carbamoyl]-5-(trifluoro-methyl)-2-pyridyl]-piperazine-1-carboxylate] |
| 2330 | CS(=O)(=O)c1cccc(NC(=O)c2cc(C(F)(F)F)cnc2N2Cc3ccccc3C2)c1 [Example 103, 2-isoindolin-2-yl-N-(3-methylsulfonylphenyl)-5-(trifluoromethyl)-pyridine-3-carboxamide] |
| 881 | NS(=O)(=O)c1cccc(NC(=O)c2cc(C(F)(F)F)cnc2N2CC3CC2CC3(F)F)c1 (single isomer, unassigned) [Example 138, 2-[(1R,4R or 1S,4S)-5,5-difluoro-2-azabicyclo-[2.2.1]heptan-2-yl]-N-(3-sulfamoylphenyl)-5-(trifluoromethyl)-pyridine-3-carboxamide] |
| 342 | NS(=O)(=O)c1cccc(NC(=O)c2ccc(C(F)(F)C(F)(F)F)nc2N2CCCCC2)c1 [Example 165, 6-(1,1,2,2,2-pentafluoroethyl)-2-(1-piperidyl)-N-(3-sulfamoylphenyl) pyridine-3-carboxamide] |
| 131 | CS(=O)(=O)c1cccc(NC(=O)c2cc(C(F)(F)F)cnc2N2CCC3(CC2)CC3)c1 [Example 99, 2-(6-azaspiro[2.5]octan-6-yl)-N-(3-methylsulfonylphenyl)-5-(trifluoromethyl)-pyridine-3-carboxamide] |
| 82 | NS(=O)(=O)c1cccc(NC(=O)c2cc(C(F)(F)F)cnc2N2CC3CC2CC3(F)F)c1 (single isomer, unassigned) [Example 137, 2-[(1S,4S or 1R,4R)-5,5-difluoro-2-azabicyclo-[2.2.1]heptan-2-yl]-N-(3-sulfamoylphenyl)-5-(trifluoromethyl)-pyridine-3-carboxamide] |
| 63 | C[C@@H]1CN(c2ncc(C(F)(F)F)cc2C(=O)Nc2ccc3c(c2)S(=O)(=O)NC3)C[C@H](C)C1(F)F [Example 111, 2-[(3S,5R)-4,4-difluoro-3,5-dimethyl-1-piperidyl]-N-(1,1-dioxo-2,3-dihydro-1,2-benzothiazol-6-yl)-5-(trifluoromethyl) pyridine-3-carboxamide] |
| 59 | NS(=O)(=O)c1cccc(NC(=O)c2ccc(F)nc2N2CCCCCC2)c1 [Example 93, 2-(azepan-1-yl)-6-fluoro-N-(3-sulfamoyl-phenyl)pyridine-3-carboxamide] |
| 52 | COc1ccc(C(=O)Nc2cccc(C(N)=O)c2)c(N2CCCC(F)(F)CC2)n1 [Example 18, N-(3-carbamoyl-phenyl)-2-(4,4-difluoroazepan-1-yl)-6-methoxy-pyridine-3-carboxamide] |
| 47 | NS(=O)(=O)c1cccc(NC(=O)c2cc(C(F)(F)F)cnc2N2CCC(F)(F)CC2)c1 [Example 1, 2-(4,4-difluoropiperidin-1-yl)-N-(3-sulfamoylphenyl)-5-(trifluoromethyl)nicotinamide] |
| 24 | NS(=O)(=O)c1cccc(NC(=O)c2cc(Br)cnc2N2CCCCCC2)c1 [Example 32, 2-(azepan-1-yl)-5-bromo-N-(3-sulfamoyl-phenyl)pyridine-3-carboxamide] |
| 20 | CS(=O)(=O)c1cccc(NC(=O)c2cc(C(F)(F)F)cnc2N2CCCCCCC2)c1 [Example 95, 2-(azocan-1-yl)-N-(3-methylsulfonylphenyl)-5-(trifluoromethyl)-pyridine-3-carboxamide] |
| 16 | NS(=O)(=O)c1cccc(NC(=O)c2ccc(Cl)nc2N2CCCCCC2)c1 [Example 89, 2-(azepan-1-yl)-6-chloro-N-(3-sulfamoyl-phenyl)pyridine-3-carboxamide] |
| 15 | CC1CN(c2ncc(C(F)(F)F)cc2C(=O)Nc2cccc(S(N)(=O)=O)c2)CCC1(F)F (single isomer, unassigned) [Example 124, (S or R)-2-(4,4-difluoro-3-methylpiperidin-1-yl)-N-(3-sulfamoylphenyl)-5-(trifluoromethyl)nicotinamide] |
| 12 | NS(=O)(=O)c1cccc(NC(=O)c2cc(C(F)(F)F)cnc2N2CC3CCC(C3)C2)c1 (racemic) [Example 45, 2-[rac-3-azabicyclo[3.2.1]octan-3-yl]-N-(3-sulfamoyl-phenyl)-5-(trifluoro-methyl)pyridine-3-carboxamide] |
| 10 | NS(=O)(=O)c1cccc(NC(=O)c2cc(C(F)(F)F)cnc2N2CCCC3(CC2)CC3)c1 [Example 79, 2-(6-azaspiro[2.6]nonan-6-yl)-N-(3-sulfamoyl-phenyl)-5-(trifluoro-methyl)nicotinamide] |
| 3 | CC1CN(c2ncc(C(F)(F)F)cc2C(=O)Nc2cccc(S(N)(=O)=O)c2)CCC1(F)F (single isomer, unassigned) [Example 123, (R or S)-2-(4,4-Difluoro-3-methylpiperidin-1-yl)-N-(3-sulfamoylphenyl)-5-(trifluoromethyl)nicotinamide] |
